# From publication PMC9995496, “A screen for MeCP2-TBL1 interaction inhibitors using a luminescence-based assay” (Scientific Reports, 2023)
# Molecular target: T1, MeCP2-TBL1 interaction (MeCP2-SmBiT / TBL1-LgBiT) (Mus musculus, UniProt Q9QXE7)
# T1 construct: expressed in transfected cells; crude lysate used as a cell-free assay
# T1 sequence (Q9QXE7 166-527): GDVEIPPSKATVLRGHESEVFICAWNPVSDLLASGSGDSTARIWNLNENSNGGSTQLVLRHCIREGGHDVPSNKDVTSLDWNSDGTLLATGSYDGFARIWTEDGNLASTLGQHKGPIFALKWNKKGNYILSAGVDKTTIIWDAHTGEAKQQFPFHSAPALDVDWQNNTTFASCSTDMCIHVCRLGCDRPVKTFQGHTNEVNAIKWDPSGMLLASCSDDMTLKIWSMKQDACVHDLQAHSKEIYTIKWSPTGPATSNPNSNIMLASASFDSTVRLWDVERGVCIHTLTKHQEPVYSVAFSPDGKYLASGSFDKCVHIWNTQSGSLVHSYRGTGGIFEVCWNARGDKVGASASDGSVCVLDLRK
# Assay: MeCP2-TBL1 NanoLuc luciferase complementation assay (cell-free, extracts of transfected HEK293 cells);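 note: each compound tested at 20 µM final concentration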
# Format: binding, human
# Details: primary screen of Asinex library, single well per compound
# How it was run: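 Cell-free split NanoLuc: lysate of HEK293 cells co-expressing the MeCP2 C-terminal half-SmBiT and TBL1 WD domain-LgBiT, mixed 1:1 with furimazine. After 30 min at room temperature, luminescence was plate-median normalized.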
row,Inhibition percent,SMILES
1,6.92,C[C@]12C[C@@H](Cc3ccccc3)N(CC(=O)NCc3ccccc3Cl)[C@H]1CCCC(=O)N2 [BDH_33626431]
2,-0.41,C[C@]12C[C@@H](Cc3ccccc3)N(C(=O)CC3CCN(c4ncccn4)CC3)[C@H]1CCCC(=O)N2 [BDH_33627845]
3,-0.67,Cc1cc(O)cc(=O)n1CC(=O)N1CCCCC1C1CCN(C(=O)Cc2ccccc2F)CC1 (stereo not shown) [BDH_33628360]
4,0.45,O=C(NCCC1CCCCN1C(=O)CCN1C(=O)CCNC1=O)c1ccccc1 (stereo not shown) [BDH_33628607]

# The remaining lines, values behind:
row,SMILES,Inhibition percent
1,COc1cccc([C@@H]2C[C@]3(C)NC(=O)CCCC[C@@H]3N2CC(=O)Nc2cc(C)ccc2F)c1 [BDH_33619764],-0.65
2,CC(=O)N[C@@]12CCN(CC(=O)Nc3cc(C)ccc3F)C[C@@H]1[C@@H](c1ccccc1)N(C(C)=O)C2 [BDH_33619766],-3.87
3,COc1cccc([C@@H]2C[C@]3(C)NC(=O)CCCC[C@@H]3N2CC(=O)Nc2ccn(C)n2)c1 [BDH_33620384],-2.63
4,O=C(CN1CCNCC1c1ccc(C(F)(F)F)cc1)NC(c1ccccc1)c1ccccc1 (stereo not shown) [BDH_33620941],-0.43
5,COc1cccc([C@@H]2C[C@]3(C)NC(=O)CCCC[C@@H]3N2CC(=O)Nc2cc(F)ccc2C)c1 [BDH_33620981],-1.41
6,COc1ccc(NC(C)=O)c(NC(=O)CN2C[C@H]3CCC[C@H](Cc4cnccn4)[C@H]3C2)c1 [BDH_33621771],0.12
7,CCn1cc(NC(=O)CN2[C@H]3CCCCC(=O)N[C@@]3(C)C[C@H]2c2cccc(C(F)(F)F)c2)c(C)n1 [BDH_33623667],-2.55
8,CC(=O)N[C@@]12CN(C)CC[C@@H]1[C@@H](c1ccccc1)N(CC(=O)Nc1ccc(OC(F)F)cc1)C2 [BDH_33624452],0.21
9,Cc1cc(NC(=O)CN2[C@H]3CCCCCN[C@@]3(C)C[C@H]2c2ccccc2)nn1C [BDH_33624483],-0.55

# Same assay, conditions: primary screen of the Asinex library, sheet "Sargen output Asinex library", one well per compound
row,Inhibition percent [%],SMILES
1,-3.37,COc1ccc(C)c(NC(=O)CN2CC[C@@H]3[C@@H](c4ccccc4)N(C(C)=O)C[C@]3(NC(C)=O)C2)c1 [BDH_33618463]
2,4.29,O=C(CN1C[C@@H](c2cc(F)cc(F)c2)[C@@]2(CCCCC(=O)N2)C1)Nc1ccnn1C1CCCC1 [BDH_33619464]
3,-1.76,CC(=O)N[C@@]12CN(CC(=O)Nc3cc(C)ccc3F)CC[C@@H]1[C@@H](c1ccccc1)N(C(C)=O)C2 [BDH_33619769]
4,1.60,CC(=O)N[C@@]12CN(C(C)=O)CC[C@@H]1[C@@H](c1ccccc1)N(CC(=O)Nc1cc(F)ccc1C)C2 [BDH_33621128]
5,-4.50,CC(=O)N[C@@]12CN(C)CC[C@@H]1[C@@H](c1ccccc1)N(CC(=O)Nc1cccc(C)c1C)C2 [BDH_33621433]
6,5.23,CC(=O)N[C@@]12CN(C(C)=O)CC[C@@H]1[C@@H](c1ccccc1)N(CC(=O)Nc1cccc(C)c1C)C2 [BDH_33621434]
7,-0.21,Cn1c(CNC(=O)CN2[C@H](Cc3ccccc3)C[C@]3(C)NC(=O)CCC[C@H]23)nc2ccccc21 [BDH_33623014]
8,0.43,COc1ccc([C@@H]2C[C@]3(C)NC(=O)CCC[C@@H]3N2CC(=O)NCc2nc3ccccc3n2C)cc1 [BDH_33623015]
9,-1.00,CCc1ccccc1NC(=O)CN1CC[C@@]2(NC(C)=O)CN(C(C)=O)[C@H](c3ccccc3)[C@H]2C1 [BDH_33623049]
10,-0.84,CC(=O)N[C@H]1C[C@@H](C(=O)N(C)C)N(CC(=O)NCc2ccc3[nH]c(C)c(C)c3c2)[C@H]1c1ccccc1 [BDH_33623462]
11,-1.65,CCn1cc(NC(=O)CN2[C@H](Cc3ccccc3)C[C@]3(C)NC(=O)CCC[C@H]23)c(C)n1 [BDH_33623813]
12,1.80,CC(=O)Nc1ccc(NC(=O)CN2[C@H](Cc3ccccc3)C[C@]3(C)NC(=O)CCC[C@H]23)c(Cl)c1 [BDH_33623952]
13,7.98,COc1cccc([C@@H]2C[C@]3(C)NC(=O)CCCC[C@@H]3N2CC(=O)Nc2ccc(OC(F)F)cc2)c1 [BDH_33624322]
14,10.53,CCc1ccc(NC(=O)CN2[C@H]3CCCCC(=O)N[C@@]3(C)C[C@H]2c2cccc(OC)c2)cc1 [BDH_33625442]
15,2.58,CC(=O)N[C@@]12CCN(CC(=O)Nc3ccc(C)c(F)c3)C[C@@H]1[C@@H](c1ccccc1)N(C(C)=O)C2 [BDH_33625631]

# Same assay, conditions: primary screen of the Asinex library, sheet "Sargen output Asinex library", one well per compound, Batch Ref. 1
row,Inhibition percent [%],SMILES
1,10.91,Cc1ccc(NC(=O)CN2[C@H](Cc3ccccc3)C[C@]3(C)NC(=O)CCC[C@H]23)cc1F [BDH_33625782]
2,2.77,COc1ccc([C@@H]2C[C@]3(C)NC(=O)CCC[C@@H]3N2CC(=O)Nc2ccc(C)c(F)c2)cc1 [BDH_33625783]
3,0.56,COc1ccc(C)cc1NC(=O)CN1CC[C@@]2(NC(C)=O)CN(C(C)=O)[C@H](c3ccccc3)[C@H]2C1 [BDH_33625816]
4,-1.85,CC(=O)N[C@@]12CCN(CC(=O)Nc3cccc(F)c3)C[C@@H]1[C@@H](c1ccccc1)N(C(C)=O)C2 [BDH_33625995]
5,-3.72,COc1ccc([C@@H]2C[C@]3(C)NC(=O)CCC[C@@H]3N2CC(=O)Nc2cccc(F)c2)cc1 [BDH_33626152]
6,0.20,CC(=O)N[C@H]1C[C@@H](C(=O)N(C)C)N(CC(=O)NCc2ccccc2Cl)[C@H]1c1ccccc1 [BDH_33626360]
7,-0.22,COc1ccc(NC(=O)CN2[C@H]3CCCCC(=O)N[C@@]3(C)C[C@H]2c2cccc(OC)c2)cc1 [BDH_33626569]
8,-3.55,COc1ccc(NC(=O)CN2CC[C@@]3(NC(C)=O)CN(C(C)=O)[C@H](c4ccccc4)[C@H]3C2)cc1 [BDH_33626570]
9,1.39,Nc1ncc(-c2cccc(C(F)(F)F)c2)c(C2CCCCN2C(=O)CCNC(=O)c2cccnc2)n1 (stereo not shown) [BDH_33627369]
10,1.89,C[C@]12C[C@@H](Cc3ccccc3)N(C(=O)CCN3C(=O)CCCC3=O)[C@H]1CCCC(=O)N2 [BDH_33628122]
11,2.35,Nc1ncc(-c2cccc(C(F)(F)F)c2)c(C2CCCCN2C(=O)CCN2C(=O)CCNC2=O)n1 (stereo not shown) [BDH_33628597]

# The next lines start with the compound.
row,SMILES,Inhibition percent [%]
1,CC(=O)N[C@H]1C[C@@H](C(=O)N(C)C)N(CC(=O)Nc2cccc3c2CCCC3)[C@H]1c1ccccc1 [BDH_33619991],-0.19
2,COc1cccc([C@@H]2C[C@]3(C)NC(=O)CCCC[C@@H]3N2CC(=O)Nc2cccc(C)c2C)c1 [BDH_33621286],2.19
3,CC(=O)N[C@@]12CN(C(C)=O)CC[C@@H]1[C@@H](c1ccccc1)N(CC(=O)Nc1cccc(F)c1C)C2 [BDH_33622250],-0.19
4,COc1cccc([C@@H]2C[C@]3(C)NC(=O)CCCC[C@@H]3N2CC(=O)NCc2nc3ccccc3n2C)c1 [BDH_33622879],0.95
5,COc1ccc([C@@H]2C[C@]3(C)NC(=O)CCC[C@@H]3N2CC(=O)NCc2ccc3[nH]c(C)c(C)c3c2)cc1 [BDH_33623525],-0.10
6,COc1ccc([C@@H]2C[C@]3(C)NC(=O)CCC[C@@H]3N2CC(=O)Nc2ccc(OC(F)F)cc2)cc1 [BDH_33624459],-1.08
7,COc1cccc([C@@H]2C[C@]3(C)NC(=O)CCCC[C@@H]3N2CC(=O)Nc2cc(C)n(C)n2)c1 [BDH_33624491],-2.56
